Laboratory results from patent publication US4740505A, “Pyridazinyloxy (or thio) phenyl phosphates” (priority 1985, dated 1988).
Like-named read-outs stand apart in the source and are kept apart here.

Experiments:
[1] = tested on: Tetranychus urticae; experiment: Effectiveness on Tetranychus urticae (rating of effects on kidney bean seedlings); format: in vivo; conditions: 500 ppm, 20 ml, rating based on percent decrease; for Rating of effect Day-2: 2nd day after treatment; for Rating of effect Day-7: 7th day after treatment
Procedure: Effectiveness on Tetranychus urticae
Each of the compounds listed in the following table is processed into an emulsifiable concentrate in accordance with the formulation of Example 6. The emulsifiable concentrate is diluted with water (Dyne®, a spreading agent produced by Takeda Chemical Ind. Ltd., as diluted 3,000-fold) to prepare a 500 ppm aqueous solution. Ten female adult of Tetranychus urticae are put into each kidney been seedling raised in a jiffy pot (6 cm in diameter), and left in a glass house at 28° C. for 24 hours. Each pot is taken out of the glass house; 20 ml of the aqueous solution as prepared above is spread over each kidney bean seedling. The jiffy pots are laid in the glass house again. Larvae and adult which are alive on the leaves are counted at the 2nd and 7th days after the spreading treatment. The test is repeated two times. The degrees are determined on the basis of percent decrease.

[2] = tested on: Spodoptera litura; experiment: Effectiveness on Spodoptera litura (mortality of 3rd instar larvae on sprayed soybean leaves); format: in vivo
Procedure: Effectiveness of Spondoptera litura
Each of the test compounds listed in the following table is processed into an emulsifiable concentrate in accordance with the formulation of Example 6. The emulsifiable concentrate is diluted with water (Dyne®, a spreading agent produced by Takeda Chemical Ind. Ltd., as diluted 3,000-fold) to prepare a 100 ppm aqueous solution.
Using a spray gun (nozzle pressure of 1 kg/cm^2 gauge), 20 ml of the aqueous 100 ppm solution is sprayed over soybean seedlings in a spraying chamber (on 10th day after germination) which have been raised in jiffy pots (6 cm in diameter). Two main leaves are respectively cut off from the seedlings 2 hours and 6 days after the spraying. Each of the leaves is put into an ice cream cup (diameter: 6 cm, depth: 4 cm), and 10 larvae of Spodoptera litura at the 3rd instar are put into each of the cups. The cups are left in a room at 25° C.; after 48 hours, dead larvae are counted. The test is repeated two times. The results are shown in terms of mortality (%) in Table 6. [formula]
The following compounds are used for controls.
The same compounds are used for controls also in the following Test Examples.

[3] = Toxicological test: oral acute toxicity in mice; parameters: species or system mice (ddY-SLC strained male); conditions: mouse, in vivo, five-week aged ddY-SLC male mice
[4] = 100 ppm spray, leaves cut 6 days after spraying, dead larvae counted after 48 hours, 25° C., read-out: Mortality 6th day after spraying
[5] = 48 h, read-out: Mortality 2 hours after spraying
[6] = 100 ppm spray, leaves cut 2 hours after spraying, dead larvae counted after 48 hours, 25° C., read-out: Mortality 2 hours after spraying

Row | SMILES | Rating of effect Day-2 [1] | Rating of effect Day-7 [1] | mortality at 100 ppm [2, 4] [%] | mortality at 100 ppm [2, 5] [%] | LD50 [3] [mg/kg] | mortality at 100 ppm [2, 6] [%] | mortality at 100 ppm ([2]; 48 h, read-out: Mortality 6th day after spraying) [%]
1 | CCCSP(=O)(OCC)Oc1cccc(Oc2ccc(N(C)C)nn2)c1 (stereo not shown) [Compound No. 21, O-Ethyl-S-n-propyl-O-[3-(3-dimethylaminopyridazinyl-6-oxy)phenyl]phosphorothioate] | 3 (≥90) | 3 (≥90) | 100 | 100 | – | – | –
2 | CCCSP(=O)(OCC)Oc1ccccc1Sc1ccc(N(C)C)nn1 (stereo not shown) [compound 45] | 3 (≥90) | 3 (≥90) | – | – | – | – | –
3 | CCCSP(=S)(OCC)Oc1ccc(Oc2ccc(Cl)nn2)c(C)c1 (stereo not shown) [compound 16] | 3 (≥90) | 3 (≥90) | 100 | 100 | > 300 | – | –
4 | CCCSP(=O)(OCC)Oc1ccccc1Oc1ccc(N)nn1 (stereo not shown) [compound 43] | 3 (≥90) | 3 (≥90) | – | – | – | – | –
5 | CCCSP(=O)(OCC)Oc1ccc(Oc2ccc(N(C)C)nn2)cc1 (stereo not shown) [compound 6] | – | – | 90 | 100 | – | – | –
6 | CCCSP(=O)(OCC)Oc1ccc(Oc2cccnn2)cc1 (stereo not shown) [compound 1] | 3 (≥90) | 3 (≥90) | 90 | 100 | – | – | –
7 | CCCSP(=S)(OCC)Oc1ccc(Sc2ccc(NC(C)CC)nn2)cc1 (stereo not shown) [compound 12] | – | – | – | – | > 300 | – | –
8 | CCCSP(=S)(OCC)Oc1ccccc1Oc1ccc(C)nn1 (stereo not shown) [compound 38] | 3 (≥90) | 3 (≥90) | 100 | 100 | > 300 | – | –
9 | CCCSP(=S)(OCC)Oc1ccc(Cl)cc1Cl (stereo not shown) [Prothiophos, reference compound] | 3 (≥90) | 0 (≤20) | 10 | – | – | 100 | –
10 | CCCSP(=S)(OCC)Oc1ccc(Sc2ccc(N(C)C)nn2)cc1 (stereo not shown) [compound 9] | 3 (≥90) | 3 (≥90) | – | – | > 300 | – | –
11 | CCC(C)SP(=O)(OC)Oc1ccccc1Oc1ccc(Cl)nn1 (stereo not shown) [Compound No. 27, O-Methyl-S-sec-butyl-O-[2-(3-chloropyridazinyl-6-oxy)phenyl]phosphorothioate] | 3 (≥90) | 3 (≥90) | 100 | 100 | – | – | –
12 | CCCSP(=S)(OCC)Oc1ccccc1Oc1ccc(SCC)nn1 (stereo not shown) [compound 42] | 3 (≥90) | 3 (≥90) | 100 | 100 | > 300 | – | –
13 | CCCSP(=O)(OCC)Oc1cccc(Oc2ccc(Cl)nn2)c1 (stereo not shown) [compound 18] | 3 (≥90) | 3 (≥90) | 100 | 100 | > 300 | – | –
14 | CCCSP(=O)(OCC)Oc1ccc(Sc2ccc(N(C)C)nn2)cc1 (stereo not shown) [compound 8] | 3 (≥90) | 3 (≥90) | – | – | ~300 | – | –
15 | CCOP(=O)(Oc1ccccc1Oc1ccc(Cl)nn1)SC(C)C (stereo not shown) [compound 33] | – | – | – | – | > 300 | – | –
16 | CCCSP(=S)(OCC)Oc1ccccc1Oc1ccc(N)nn1 (stereo not shown) [compound 44] | 3 (≥90) | 3 (≥90) | – | – | > 300 | – | –
17 | CCOP(=O)(Oc1ccccc1Oc1ccc(Cl)nn1)SC(C)CC (stereo not shown) [compound 36] | – | – | 100 | 100 | – | – | –
18 | CCCSP(=S)(OCC)Oc1ccc(Oc2ccc(Cl)nn2)cc1 (stereo not shown) [Compound No. 3] | 3 (≥90) | 3 (≥90) | 90 | 100 | ~300 | – | –

Row | SMILES | Rating of effect Day-2 [1] | Rating of effect Day-7 [1] | mortality at 100 ppm [2, 4] [%] | mortality at 100 ppm [2, 5] [%] | LD50 [3] [mg/kg] | mortality at 100 ppm [2, 6] [%] | mortality at 100 ppm ([2]; 48 h, read-out: Mortality 6th day after spraying) [%]
19 | CCCSP(=O)(OCC)Oc1ccc(Oc2ccc(Cl)nn2)cc1 (stereo not shown) [Compound No. 2, O-Ethyl-S-n-propyl-O-[4-(3-chloropyridazinyl-6-oxy)phenyl]phosphorothioate] | 3 (≥90) | 3 (≥90) | 100 | 100 | – | – | –
20 | CCCSP(=O)(OCC)Oc1ccc(Sc2ccc(NC(C)CC)nn2)cc1 (stereo not shown) [compound 11] | – | – | – | – | > 300 | – | –
21 | CCCSP(=O)(OCC)Oc1ccccc1Oc1ccc(C)nn1 (stereo not shown) [compound 37] | 3 (≥90) | 3 (≥90) | – | – | – | – | –
22 | CCCSP(=S)(OCC)Oc1ccccc1Oc1ccc(Br)nn1 (stereo not shown) [compound 25] | 3 (≥90) | 3 (≥90) | 100 | 100 | > 300 | – | –
23 | CCCSP(=O)(OCC)Oc1ccccc1Oc1ccc(Cl)nn1 (stereo not shown) [Compound No. 29, O-Ethyl-S-n-propyl-O-[2-(3-chloropyridazinyl-6-oxy)phenyl]phosphorothioate] | 3 (≥90) | 3 (≥90) | – | 100 | – | – | 90
24 | CCC(C)SP(=O)(OC)Oc1ccccc1Sc1ccc(Cl)nn1 (stereo not shown) [compound 28] | 3 (≥90) | 3 (≥90) | 95 | 100 | – | – | –
25 | CCCSP(=O)(OCC)Oc1ccc(Oc2ccc(N(C(C)=O)C(C)CC)nn2)cc1 (stereo not shown) [compound 13] | 3 (≥90) | 3 (≥90) | – | – | – | – | –
26 | CCCSP(=O)(OCC)Oc1cccc(Oc2ccc(NC(C)CC)nn2)c1 (stereo not shown) [compound 22] | – | – | 100 | 100 | – | – | –
27 | CCC(C)SP(=O)(OC)Oc1ccc(Oc2ccc(Cl)nn2)c(C)c1 (stereo not shown) [compound 14] | 3 (≥90) | 3 (≥90) | – | – | – | – | –
28 | CCCSP(=O)(OCC)Oc1ccc(Oc2ccc(Cl)nn2)c(C)c1 (stereo not shown) [compound 15] | 3 (≥90) | 3 (≥90) | 100 | 100 | – | – | –
29 | CCCSP(=S)(OCC)Oc1ccc(Oc2ccc(NC(C)CC)nn2)cc1 (stereo not shown) [compound 10] | – | – | – | – | > 300 | – | –
30 | CCCSP(=S)(OCC)Oc1ccc(Sc2ccc(Cl)nn2)cc1 (stereo not shown) [compound 5] | 3 (≥90) | 3 (≥90) | – | – | > 300 | – | –
31 | CCCSP(=S)(OCC)Oc1ccccc1Sc1ccc(Cl)nn1 (stereo not shown) [Compound No. 32, O-Ethyl-S-n-propyl-O-[2-(3-chloropyridazinyl-6-thio)phenyl]phosphorodithioate] | 3 (≥90) | 3 (≥90) | – | – | > 300 | – | –
32 | CCCSP(=O)(OCC)Oc1ccccc1Sc1ccc(Cl)nn1 (stereo not shown) [compound 31] | 3 (≥90) | 3 (≥90) | – | – | > 300 | – | –
33 | CCCSP(=S)(OCC)Oc1ccccc1Sc1ccc(NC(C)CC)nn1 (stereo not shown) [compound 46] | 3 (≥90) | 3 (≥90) | – | – | > 300 | – | –
34 | CCCSP(=S)(OCC)Oc1ccc(Oc2ccc(N(C)C)nn2)cc1 (stereo not shown) [compound 7] | – | – | – | – | > 300 | – | –
35 | CCCSP(=O)(OCC)Oc1cccc(Oc2cccnn2)c1 (stereo not shown) [compound 17] | 3 (≥90) | 3 (≥90) | 100 | 100 | – | – | –
36 | COP(=S)(OC)Oc1ccc([N+](=O)[O-])c(C)c1 [Fenitrothion, reference compound] | 3 (≥90) | 0 (≤20) | 0 | – | – | 80 | –
